Reference: publication PMC8956739, “A synthetic lipopeptide targeting top-priority multidrug-resistant Gram-negative pathogens” (Nature Communications, 2022)
Where “and” joins values, the source holds several entries; their conditions need not be identical. Identical values can stand only once.

What was measured:
P. aeruginosa ATCC 27853 = assay: Neutropenic mouse bloodstream infection model; format: in vivo; settings: single IV dose 4 mg/kg; for Log10 CFU/mL blood at 4 h, Mean / Δlog10 CFU/mL blood (mean) / Log10 CFU/mL blood at 4 h, single mouse: 4 h; for Δlog10 CFU/mL blood (mean): treated minus control, mean of replicates; for Δlog10 CFU/mL blood (mean) / Log10 CFU/mL blood at 4 h, single mouse / Delta Log10 CFU/mL blood at 4 h, single mouse: 4 mg/kg; for Delta Log10 CFU/mL blood at 4 h, single mouse: treated mouse minus mean of vehicle mice
Procedure, shortened: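 Female Swiss mice made neutropenic with cyclophosphamide (150 mg/kg day −4, 100 mg/kg day −1), infected IV with 50 µL of 4 × 10^8 CFU/mL. Lipopeptide 4 mg/kg (free base) IV at 2 h post-inoculation, n = 3. Efficacy = Δlog10 CFU/mL blood versus saline at 4 h post-dose.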

Swiss mice = assay: Acute toxicity in mice (maximum tolerated dose, IV bolus); format: in vivo, mouse; settings: for MTD, single replicate: replicates 1-4
Procedure, shortened: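 Female Swiss mice (7 weeks, 22–28 g) given single IV tail-vein bolus of lipopeptide in 0.9% saline, dosed as mg/kg free base. Clinical toxicity signs monitored over 0–24 h, most frequently in first 2 h.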

A. baumannii AB5075 = assay: In vitro passaging, emergence of resistance; format: cell-based, Acinetobacter baumannii; settings: for time to emergence of resistance: 4× MIC, 7-day passaging; for growth over 7 days: 32× MIC
Protocol: Log-phase cultures (OD600 = 0.5, ~10^8 CFU/mL) of A. baumannii AB5075 were inoculated (1:10, v/v) in 200 μL fresh CaMHB (cation-adjusted Mueller–Hinton broth) containing 2, 8 and 16 μg/mL polymyxin B, colistin, F287, and F365 in a 96-well microplate with 4 biological replicates. The cultures were incubated at 37 °C for 12 h before the next dilution (1:10, v/v) with fresh CaMHB. Successive subculturing was conducted for 7 days.

[1] = system: K. pneumoniae FADDI-KP032; format: cell-based, Klebsiella pneumoniae; settings: carbapenem-resistant isolate
Procedure, shortened: (§1)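 Cation-adjusted Mueller–Hinton broth was used with the broth microdilution method to set MICs against clinical isolates. A separate run on P. aeruginosa ATCC 27853 added 10% Survanta® (v/v, 2.5 mg/mL phospholipids) to gauge lung-surfactant binding of polymyxins.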

[2] = system: K. pneumoniae FADDI-KP065; format: cell-based, Klebsiella pneumoniae; settings: carbapenem-resistant isolate
Procedure, shortened: as §1

wild-type HK-2 cells = assay: in vitro; format: cell-based, human; settings: human, wild-type HK-2 cells (kidney proximal tubular), 24 h
Protocol: (§2) Fig. 6 Transcriptomic changes in human kidney proximal tubular HK-2 cells following treatments with polymyxin B (PMB), colistin (COL), F287, F319, and F365. a Numbers of differentially expressed genes. Distinctive intersections are color-coded. b Cell viability difference (two-tailed Student’s t-test, n = 4 biologically independent cells, Benjamini–Hochberg adjusted P-values) between wild-type HK-2 and KCNJ16 knockout (KO) cells following 24 h treatment with lipopeptides. n.s., not significant; ^*adjusted P < 0.05, ^**adjusted P < 0.01, ^***adjusted P < 0.001. Data are shown as mean ± s.d. and individual data points. c Extracted transcriptional regulatory network from Signor database with 1-step neighbor constraints (enlarged for detail). Source data are provided as a Source Data file.

[3] = system: KCNJ16 knockout HK-2 cells; assay: Cell viability after 24 h treatment; format: cell-based, human; settings: KCNJ16 knockout HK-2 cells, 24 h, Fig. 6b; for Cell viability, KCNJ16 KO, Rep2: replicate 2; for Cell viability, KCNJ16 KO, Rep3: replicate 3; for Cell viability, KCNJ16 KO, Rep4: replicate 4
Protocol: as §2

[4] = system: MDR clinical isolates of Enterobacterales (n = 177, 152 carbapenem-resistant); assay: Extended MIC screening, MDR clinical isolates; format: cell-based
Protocol: MICs were determined in cation-adjusted Mueller–Hinton broth (CaMHB) by the broth micro-dilution method against ATCC strains and clinical isolates. MICs in the presence of Survanta® were determined as described above against P. aeruginosa ATCC 27853. In the 100 μL of fresh CaMHB containing polymyxins, 10% Survanta® (v/v, 2.5 mg/mL phospholipids) was added. MICs in the presence and absence of Survanta® were compared to determine the effect of binding to lung surfactant on the antibacterial activity of polymyxins.

[5] = 8 ug/mL, time 0 h, passage 0, replicates rep1-rep4, raw OD600 (blank OD600 0.125333)
[6] = 8 ug/mL, time 12 h, passage 1, replicates rep1-rep4, raw OD600 (blank OD600 0.114667)
[7] = 8 ug/mL, time 24 h, passage 2, replicates rep1-rep4, raw OD600 (blank OD600 0.0956667)
[8] = 8 ug/mL, time 36 h, passage 3, replicates rep1-rep4, raw OD600 (blank OD600 0.088)
[9] = 8 ug/mL, time 48 h, passage 4, replicates rep1-rep4, raw OD600 (blank OD600 0.104667)
[10] = 8 ug/mL, time 60 h, passage 5, replicates rep1-rep4, raw OD600 (blank OD600 0.122333)
[11] = 8 ug/mL, time 72 h, passage 6, replicates rep1-rep4, raw OD600 (blank OD600 0.095)
[12] = 8 ug/mL, time 84 h, passage 7, replicates rep1-rep4, raw OD600 (blank OD600 0.091)
[13] = 8 ug/mL, time 96 h, passage 8, replicates rep1-rep4, raw OD600 (blank OD600 0.0953333)
[14] = 8 ug/mL, time 108 h, passage 9, replicates rep1-rep4, raw OD600 (blank OD600 0.100667)
[15] = 8 ug/mL, time 120 h, passage 10, replicates rep1-rep4, raw OD600 (blank OD600 0.0983333)
[16] = 8 ug/mL, time 132 h, passage 11, replicates rep1-rep4, raw OD600 (blank OD600 0.0843333)
[17] = 8 ug/mL, time 144 h, passage 12, replicates rep1-rep4, raw OD600 (blank OD600 0.091)
[18] = 8 ug/mL, time 156 h, passage 13, replicates rep1-rep4, raw OD600 (blank OD600 0.129)

## Colistin [reference compound]
P. aeruginosa ATCC 27853
  Log10 CFU/mL blood at 4 h, Mean: 5.05 Log10 CFU/mL blood
  Δlog10 CFU/mL blood (mean): -2.39 log10 CFU/mL blood
  Log10 CFU/mL blood at 4 h, single mouse: 5.25 Log10 CFU/mL blood and 4.89 Log10 CFU/mL blood and 5.02 Log10 CFU/mL blood
  Delta Log10 CFU/mL blood at 4 h, single mouse: -2.19 Log10 CFU/mL blood and -2.56 Log10 CFU/mL blood and -2.42 Log10 CFU/mL blood
P. aeruginosa ATCC 27853; listed as COL
  Δlog10 CFU/mL blood (mean): −2.39 log10 CFU/mL blood
Swiss mice
  MTD, single replicate: 6 mg/kg and 5.8 mg/kg and 5 mg/kg
Swiss mice; single IV bolus dose, n = 4
  average maximum tolerated dose (MTD): 5.3 mg/kg
A. baumannii AB5075
  regrowth observed from day: 4 days
  time to emergence of resistance: ≤ 3 days
  growth over 7 days: No growth
A. baumannii AB5075; [5]
  OD600: 0.152 and 0.143 and 0.147 and 0.146
A. baumannii AB5075; [6]
  OD600: 0.136 and 0.134 and 0.13
A. baumannii AB5075; [7]
  OD600: 0.095 and 0.089 and 0.087 and 0.091
A. baumannii AB5075; [8]
  OD600: 0.088 and 0.087 and 0.085 and 0.091
A. baumannii AB5075; [9]
  OD600: 0.095 and 0.093
A. baumannii AB5075; [10]
  OD600: 0.125 and 0.117 and 0.115 and 0.107
A. baumannii AB5075; [11]
  OD600: 0.14 and 0.126 and 0.15
A. baumannii AB5075; [12]
  OD600: 0.196 and 0.173 and 0.191 and 0.238
A. baumannii AB5075; [13]
  OD600: 0.224 and 0.238 and 0.275 and 0.393
A. baumannii AB5075; [14]
  OD600: 0.309 and 0.315 and 0.31 and 0.392
A. baumannii AB5075; [15]
  OD600: 0.387 and 0.364 and 0.444 and 0.49
A. baumannii AB5075; [16]
  OD600: 0.344 and 0.355 and 0.395 and 0.414
A. baumannii AB5075; [17]
  OD600: 0.477 and 0.464 and 0.465 and 0.416
A. baumannii AB5075; [18]
  OD600: 0.339 and 0.382 and 0.394
A. baumannii AB5075; 8 ug/mL, time 168 h, passage 14, replicates rep1-rep4, raw OD600 (blank OD600 0.101)
  OD600: 0.344 and 0.379 and 0.374 and 0.394
[1]
  MIC K. pneumoniae FADDI-KP032: 1 µg/mL
[2]
  MIC K. pneumoniae FADDI-KP065: 0.25 µg/mL
wild-type HK-2 cells
  Cell viability, WT, Rep1: 52.6875
  Cell viability, WT, Rep2: 59.5382
  Cell viability, WT, Rep4: 47.0908
[3]
  Cell viability, KCNJ16 KO, Rep2: 81.0179
  Cell viability, KCNJ16 KO, Rep3: 91.8189
  Cell viability, KCNJ16 KO, Rep4: 66.4023

## Polymyxin B [reference compound]
P. aeruginosa ATCC 27853
  Log10 CFU/mL blood at 4 h, Mean: 4.76 Log10 CFU/mL blood
  Δlog10 CFU/mL blood (mean): -2.69 log10 CFU/mL blood
  Log10 CFU/mL blood at 4 h, single mouse: 4.60 Log10 CFU/mL blood and 4.85 Log10 CFU/mL blood and 4.82 Log10 CFU/mL blood
  Delta Log10 CFU/mL blood at 4 h, single mouse: -2.84 Log10 CFU/mL blood and -2.60 Log10 CFU/mL blood and -2.63 Log10 CFU/mL blood
P. aeruginosa ATCC 27853; listed as PMB
  Δlog10 CFU/mL blood (mean): −2.69 log10 CFU/mL blood
Swiss mice
  MTD, single replicate: 7 mg/kg and 5 mg/kg and 4.6 mg/kg
[4]; isolates with MIC 0.05 µg/mL
  Number of isolates: 0
[4]; isolates with MIC 0.125 µg/mL
  Number of isolates: 0
[4]; isolates with MIC 0.25 µg/mL
  Number of isolates: 0
[4]; isolates with MIC 0.5 µg/mL
  Number of isolates: 0
[4]; isolates with MIC 1 µg/mL
  Number of isolates: 77
[4]; isolates with MIC 2 µg/mL
  Number of isolates: 76
[4]; isolates with MIC 4 µg/mL
  Number of isolates: 2
[4]; isolates with MIC 8 µg/mL
  Number of isolates: 2
[4]; isolates with MIC 16 µg/mL
  Number of isolates: 6
[4]; isolates with MIC 32 µg/mL
  Number of isolates: 3
[4]; isolates with MIC 64 µg/mL
  Number of isolates: 6
[4]; isolates with MIC >64 µg/mL
  Number of isolates: 5
A. baumannii AB5075
  regrowth observed from day: 3 days
  time to emergence of resistance: ≤ 3 days
  growth over 7 days: No growth
A. baumannii AB5075; [5]
  OD600: 0.153 and 0.134 and 0.139 and 0.14
A. baumannii AB5075; [6]
  OD600: 0.127 and 0.115 and 0.123 and 0.124
A. baumannii AB5075; [7]
  OD600: 0.086 and 0.093 and 0.096 and 0.083
A. baumannii AB5075; [8]
  OD600: 0.088 and 0.089 and 0.094 and 0.092
A. baumannii AB5075; [9]
  OD600: 0.096 and 0.099 and 0.098 and 0.101
A. baumannii AB5075; [10]
  OD600: 0.108 and 0.105 and 0.103 and 0.116
A. baumannii AB5075; [11]
  OD600: 0.092 and 0.093 and 0.083 and 0.091
A. baumannii AB5075; [12]
  OD600: 0.1 and 0.081 and 0.084 and 0.089
A. baumannii AB5075; [13]
  OD600: 0.192 and 0.105 and 0.119 and 0.106
A. baumannii AB5075; [14]
  OD600: 0.179 and 0.108 and 0.11 and 0.118
A. baumannii AB5075; [15]
  OD600: 0.215 and 0.139 and 0.136 and 0.132
A. baumannii AB5075; [16]
  OD600: 0.198 and 0.19 and 0.197 and 0.21
A. baumannii AB5075; [17]
  OD600: 0.2 and 0.22 and 0.217 and 0.231
A. baumannii AB5075; [18]
  OD600: 0.176 and 0.181 and 0.195 and 0.201
A. baumannii AB5075; in vitro passaging, concentration 8 ug/mL, time 168 h, passage 14, individual replicates rep1-rep4, not blank-subtracted (blank OD600 0.101)
  OD600: 0.177 and 0.182 and 0.195 and 0.205
[1]
  MIC K. pneumoniae FADDI-KP032: 0.5 µg/mL
[2]
  MIC K. pneumoniae FADDI-KP065: 0.25 µg/mL
wild-type HK-2 cells
  Cell viability, WT, Rep1: 28.7713
  Cell viability, WT, Rep2: 35.2856
  Cell viability, WT, Rep4: 31.0651
[3]; replicate 1
  Cell viability, KCNJ16 KO, Rep1: 61.7446
[3]
  Cell viability, KCNJ16 KO, Rep2: 73.0677
  Cell viability, KCNJ16 KO, Rep3: 75.1154
  Cell viability, KCNJ16 KO, Rep4: 76.9625
